Test results: patent publication US10604585B2, “Modulation of PTPRA to treat arthritis” (La Jolla Institute for Allergy & Immunology, priority 2014, dated 2020)

What was measured:
RA FLS [1] = assay: RA FLS induction of gene expression in response to TNF and IL-1β (qPCR, ELISA); assay type: cell-based, human; conditions: for TNF- and IL-1-induced production of CXCL10 / TNF- and IL-1-induced production of IL6 / TNF- and IL-1-induced production of MMP13: 50 ng/ml TNFα or 2 ng/ml IL-1β with inhibitor for 24 hr
Protocol: FLS were obtained from the UCSD CTRI Biorepository. Each line was previously obtained from discarded synovial tissue of a different patient with RA at the time of synovectomy, as described previously (21). The diagnosis of RA conformed to American College of Rheumatology 1987 revised criteria(22). FLS were cultured in DMEM (Mediatech, Manassas, Va.) with 10% fetal bovine serum (FBS, Omega Scientific, Tarzana, Calif.), 2 mM L-glutamine, […] gentamicin, 100 units/ml of penicillin and […] streptomycin (Life Technologies, Carlsbad, Calif.) at 37° C. in a humidified 5% CO2 atmosphere. For all experiments, FLS were used between passages 4-10, and cells were synchronized in 0.1% FBS (serum-starvation media) for 48 hours prior to analysis or functional assays.
RNA was extracted using RNeasy Kits (Qiagen, Valencia, Calif.) or Trizol (Life Technologies). For lysis of FLS, adherent cells were first washed in PBS and then lysed in the culture plate. cDNA was synthesized using the SuperScript® III First-Strand Synthesis SuperMix (Life Technologies). qPCR was performed using a Roche Lightcycler 480 (Indianapolis, Ind.), with primer assays from SABiosciences/Qiagen. Reactions were measured in triplicate and data was normalized to the expression levels of the house-keeping gene glyceraldehyde 3-phosphate dehydrogenase (GAPDH) or RNA Polymerase II (RPII) (23).
(§1) FLS were treated with 2.5 uM PMO (Gene Tools, Philomath, OR) for 7 days. PMO was replaced in fresh culture medium after 3 days and in serum-starvation medium after 5 days.
Secreted human IL-6 and chemokine (C-X-C motif) ligand 10 (CXCL10) were measured using ELISAs from Biolegend (San Diego, Calif.).

RA FLS [2] = conditions: reference (40); cited from earlier work
RA FLS [3] = assay: Survival and apoptosis assay (Annexin V / PI, FACS); assay type: cell-based, human; conditions: sera-starvation media or in the presence of PDGF (50 ng/ml, 24 hr); FIG. 2C
Protocol: as §1
Following treatment with PMO, RA FLS were washed and incubated for an additional 24 hoursr in serum-starvation media. Adherent and non-adherent cells were collected and stained with Annexin V-Alexa Fluor® 647 and propidium iodide (PI) according to the manufacturer's instructions (Biolegend, San Diego, Calif.). Cell fluorescence was assessed by FACS using a BD LSR-II (BD Biosciences), and counts and percentages of live (Annexin V−PI−), early apoptotic (Annexin V+PI−), or late apoptotic/necrotic (Annexin V+PI+) cells were obtained. Data was analyzed for statistical significance using the Chi-square test for independence.

RA FLS [4] = assay: Western blotting of RA FLS lysates (SRC, FAK, MAPK, AKT, NF-κB signaling); assay type: cell-based, human
Protocol: as §1
Adherent cells were washed in PBS and then lysed in the culture plate in RIPA buffer (25 mM Tris-HCl pH 7.6, 150 mM NaCl, 1% NP-40, 1% sodium deoxycholate, 0.1% SDS) containing 1 mM phenylmethanesulfonyl fluoride, 10 ng/ml aprotinin, 10 μg/ml leupeptin, 10 μg/ml soybean trypsin inhibitor, 10 mM sodium orthovanadate, 5 mM sodium fluoride and 2 mM sodium pyrophosphate. Protein concentration of cell lysates was determined using the Pierce BCA Protein Assay Kit (Thermo Scientific, Rockford, Ill.).

RA FLS [5] = assay: Spreading and adhesion assay on fibronectin-coated coverslips; assay type: cell-based, human; conditions: 5% FBS, FIG. 2D
Protocol: as §1
Following treatment with PMO, equal numbers of live RA FLS were re-suspended in FLS medium containing 5% FBS and allowed to adhere onto coverslips coated with 20 μg/ml fibronectin (FN) at 37° C. for 15, 30 and 60 minutes. Cells were fixed in 4% para-formaldehyde for 5 minutes, permeabilized in 0.2% Triton X-100 for 2 minutes, and stained with 5 U/ml Alexa Fluor® 568 (AF 568)-conjugated phalloidin and 2 μg/ml Hoechst for 20 minutes (Life Technologies). Samples were imaged with an Olympus FV10i Laser Scanning Confocal Microscope (Olympus, Center Valley, Pa.). Using the FV10i acquisition software, each coverslip was separated into four nine-paneled mega-images. Each panel (1024×1024) was acquired with a 10× objective and then stitched together, through a 10% overlap, with the Olympus FluoView 1000 imaging software. Total cell number and cell areas for each panel were calculated using Image Pro Analyzer software (Media Cybernetics, Rockville, Md.).

RA FLS [6] = assay: Death of RA FLS on treatment with FAK inhibitor; assay type: cell-based, human; conditions: at the concentrations used in these experiments
RA FLS [7] = assay: Western blotting of RA FLS lysates (SRC, FAK, MAPK, AKT, NF-κB signaling); assay type: cell-based, human; conditions: 10 μM inhibitor vs DMSO
[8] = 2.5 μM PTPRA_2 PMO for 7 d, then 50 ng/ml TNF or 2 ng/ml IL-1 for 24 hr, FIGS. 8A-8B
[9] = RA FLS, RPTPα knockdown with PMO, FIG. 3B, 3C
[10] = basal conditions, PTPRA knockdown
[11] = unstimulated PMO-treated RA FLS, FIG. 3D
[12] = 2.5 μM PMO for 7 d, then 2 ng/ml IL-1β for 24 hr, vs Ctl PMO, FIG. 1D
[13] = 2.5 μM PMO for 7 d, then 50 ng/ml TNF for 24 hr, vs Ctl PMO, FIG. 1D
[14] = RA FLS, 2.5 μM PMO for 7 d, FIG. 1D

Compound: NC1(c2ccc(-c3nc4ccn5c(=O)[nH]nc5c4cc3-c3ccccc3)cc2)CCC1 [MK2206, reference compound]
- IL-1β-induced expression of CXCL10 (RA FLS [1]; RA FLS, 2 ng/ml IL-1β with inhibitor for 24 hr, vs DMSO, qPCR, FIG. 4A): increased
- TNF- and IL-1-induced production of CXCL10 (RA FLS [1]; RA FLS, vs DMSO, qPCR, FIG. 4A): did not dampen
- TNF- and IL-1-induced production of IL6 (RA FLS [1]; RA FLS, vs DMSO, qPCR, FIG. 4A): increased
- TNF- and IL-1-induced production of MMP13 (RA FLS [1]; RA FLS, vs DMSO, qPCR, FIG. 4A): did not dampen
- RA FLS migration and invasiveness (RA FLS [2]): attenuate

Compound: second PTPRA-targeted PMO: second PTPRA-targeted PMO of a different sequence; probably SEQ ID NO:5, 5′ GTGTCTCATCTGAAATCAAGACAAC 3′ (assignment not stated) (morpholino, cell-permeable, chemistry not fully specified)
- effect on CXCL10 (reduced production, protein in supernatants by ELISA) (RA FLS [1]; [8]): confirmed
- effect on IL-6 (reduced production, protein in supernatants by ELISA) (RA FLS [1]; [8]): confirmed

Compound: PTPRA PMO: cell-permeable antisense morpholino oligo (PMO) targeting PTPRA; probably SEQ ID NO:4, 5′ GACATTAAGGAATGCCTTACCCACA 3′ (assignment not stated) (morpholino, cell-permeable, chemistry not fully specified)
- apoptosis compared to control-treated cells (RA FLS [3]): significantly increased
- TNF- and IL-1β stimulated phosphorylation of AKT-S473 (RA FLS [4]; RA FLS, PMO treatment, FIGS. 3B-3C): reduced
- TNF- and IL-1β-stimulated phosphorylation of JNK (T183/Y185) (RA FLS [4]; [9]): impaired
- TNF- and IL-1β-stimulated phosphorylation of p38-T180/Y182 (RA FLS [4]; [9]): impaired
- phosphorylation of FAK-Y397 (RA FLS [4]; RA FLS, RPTPα knockdown with PMO, FIG. 3C): reduced
- proteolytic processing of NFκB subunit p100 (ratio of p52:p100) (RA FLS [4]; [10]): unaffected
- proteolytic processing of NFκB subunit p105 (ratio of p50:p105) (RA FLS [4]; [10]): unaffected
- phosphorylation of SRC-Y527 (RA FLS [4]; resting RA FLS, RPTPα knockdown with PMO, FIG. 3A): increased
- levels of IκBα following 10 minutes post-stimulation, Ctl vs PTPRA PMO-treated cells (RA FLS [4]; stimulation with TNF or IL-1β, FIG. 3B, 3C): similar
- basal phosphorylation of IκB kinase (IKK)-αβ on Ser176/180 (RA FLS [4]; [11]): non-significant trend towards decreased
- basal phosphorylation of NFκB subunit p65 on Ser536 (RA FLS [4]; [11]): non-significant trend towards decreased
- levels of IκBα protein in resting RA FLS (RA FLS [4]; unstimulated, PMO treatment): modest decrease
- spreading on fibronectin-coated coverslips (RA FLS [5]; cell area after 15, 30 and 60 min): impaired spreading
- adherence of live cells to fibronectin-coated coverslips (RA FLS [5]; cells per field after 15 min): less adherent
- RA FLS production of CXCL10 in response to IL-1β (RA FLS [1]; [12]): significantly reduced
- RA FLS production of IL6 in response to IL-1β (RA FLS [1]; [12]): significantly reduced
- RA FLS production of MMP3 in response to IL-1β (RA FLS [1]; [12]): significantly reduced
- RA FLS production of MMP13 in response to IL-1β (RA FLS [1]; [12]): significantly reduced
- RA FLS production of CXCL10 in response to TNF (RA FLS [1]; [13]): significantly reduced
- RA FLS production of MMP13 in response to TNF (RA FLS [1]; [13]): significantly reduced
- expression of IL-1β receptor (IL1R) (RA FLS [1]; [14]): increased
- expression of TNF receptor (TNFRSF1A) (RA FLS [1]; [14]): no effect

Compound: CS(=O)(=O)c1cccc(CNc2nc(Nc3ccc4c(c3)CCC(=O)N4)ncc2C(F)(F)F)c1 [PF573228]
- death of RA FLS (RA FLS [6]): does not cause death
- p38-T180/Y185 phosphorylation (RA FLS [7]; 50 ng/ml TNF or 2 ng/ml IL-1β for 30 min): no effect
- TNF- and IL-1β-induced phosphorylation of JNK-T183/Y185 (RA FLS [7]; 50 ng/ml TNF or 2 ng/ml IL-1β for 30 min, FIG. 4B): impaired
- FAK-Y397 phosphorylation (RA FLS [7]; FIG. 4B): impaired
- TNF- and IL-1-induced production of CXCL10 (RA FLS [1]; RA FLS, vs DMSO, qPCR, FIG. 4A): significantly decreased
- TNF- and IL-1-induced production of IL6 (RA FLS [1]; RA FLS, vs DMSO, qPCR, FIG. 4A): significantly decreased
- TNF- and IL-1-induced production of MMP13 (RA FLS [1]; RA FLS, vs DMSO, qPCR, FIG. 4A): significantly decreased
